Assay results: patent publication US20200095296A1, “USE OF PEPTIDES AS BIOMARKERS IN THE DIAGNOSIS, CONFIRMATION AND TREATMENT OF A NEUROLOGICAL DISORDER AND TCR AND/OR HLA IMMUNOPROFILING IN NEURODEGENERATIVE DISEASE” (THE TRUSTEES OF COLUMBIA UNIVERSITY IN THE CITY OF NEW YORK, priority 2017, published 2020)
Residue numbers refer to the chain shown, from its start. Where two headings read alike, the source gives them in different places.

Key:
[1] = biological target: T1, DPB1*02:01 (Homo sapiens, UniProt P04440+P20036, A65V/A84D/A85E/K98E); experiment: competition binding assay, purified HLA DPB1*02:01
T1 sequence (P20036 29-260): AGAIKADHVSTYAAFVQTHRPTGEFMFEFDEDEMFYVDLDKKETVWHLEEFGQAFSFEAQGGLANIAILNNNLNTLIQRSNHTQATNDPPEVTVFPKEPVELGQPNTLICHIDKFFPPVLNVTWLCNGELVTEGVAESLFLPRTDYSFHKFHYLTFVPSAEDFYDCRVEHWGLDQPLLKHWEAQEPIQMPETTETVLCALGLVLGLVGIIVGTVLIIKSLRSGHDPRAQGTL
T1 sequence (P04440 30-258 A65V/A84D/A85E/K98E): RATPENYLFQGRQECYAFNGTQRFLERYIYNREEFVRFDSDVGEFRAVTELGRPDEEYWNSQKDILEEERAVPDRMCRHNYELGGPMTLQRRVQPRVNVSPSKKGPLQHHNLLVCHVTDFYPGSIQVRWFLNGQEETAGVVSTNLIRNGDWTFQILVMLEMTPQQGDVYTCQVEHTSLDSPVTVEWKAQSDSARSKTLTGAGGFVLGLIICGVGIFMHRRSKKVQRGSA

[2] = biological target: T2, DPB1*03:01 (Homo sapiens, UniProt P04440+P20036, A65V/A84D/A85E/E86D/F38Y/G113D/G114E/G40L/I94L/L37V/M105V/M116V/P115A/R125K/T199I); experiment: competition binding assay, purified HLA DPB1*03:01; conditions: purified HLA, radiolabeled peptide competition; nM; read-out: binding to DPB1*03:01 (IC50)
T2 sequence (P20036 29-260): T1 sequence (P20036 29-260)
T2 sequence (P04440 30-258 L37V/F38Y/G40L/A65V/A84D/A85E/E86D/I94L/M105V/G113D/G114E/P115A/M116V/R125K/T199I): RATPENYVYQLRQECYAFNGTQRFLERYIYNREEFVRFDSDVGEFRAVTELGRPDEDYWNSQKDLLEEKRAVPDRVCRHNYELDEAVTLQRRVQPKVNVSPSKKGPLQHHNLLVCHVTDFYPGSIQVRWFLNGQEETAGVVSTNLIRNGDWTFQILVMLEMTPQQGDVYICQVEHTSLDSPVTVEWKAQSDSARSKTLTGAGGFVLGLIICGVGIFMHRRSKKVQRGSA

[3] = biological target: T3, DPB1*04:01 (Homo sapiens, UniProt P04440); experiment: competition binding assay, purified HLA DPB1*04:01
T3 sequence (P04440 30-258): T1 sequence (P04440 30-258 A65V/A84D/A85E/K98E) with V36A, D55A, E56A, E69K
T3 sequence (P20036 29-260 partner): T1 sequence (P20036 29-260)

[4] = biological target: T4, DPB1*04:02 (Homo sapiens, UniProt P04440+P20036, A65V/A84D/A85E/L207M); experiment: competition binding assay, purified HLA DPB1*04:02
T4 sequence (P04440 30-258 A65V/A84D/A85E/L207M): T1 sequence (P04440 30-258 A65V/A84D/A85E/K98E) with E69K, L178M
T4 sequence (P20036 29-260): T1 sequence (P20036 29-260)

[5] = biological target: T5, DPB1*05:01 (Homo sapiens, UniProt P04440+P20036, A65V/A84E/F191V/F64L/G113D/G114E/K142R/L158P/M116V/M62Q/P115A/Q81R/R125K/T114A/T199I/T259P/V234M); experiment: competition binding assay, purified HLA DPB1*05:01
T5 sequence (P20036 29-260 M62Q/Q81R/T114A/K142R/L158P/F191V/T259P): T1 sequence (P20036 29-260) with M34Q, Q53R, T86A, K114R, L130P, F163V, T231P
T5 sequence (P04440 30-258 F64L/A65V/A84E/G113D/G114E/P115A/M116V/R125K/T199I/V234M): T2 sequence (P04440 30-258 L37V/F38Y/G40L/A65V/A84D/A85E/E86D/I94L/M105V/G113D/G114E/P115A/M116V/R125K/T199I) with V8L, Y9F, L11G, F35L, D55E, E56A, D57E, L65I, V76M, V205M

[6] = system: PBMC; experiment: IFNg/IL-5 dual ELISPOT after 14 day in vitro stimulation of PBMC with Tau peptides; assay type: cell-based, human; conditions: for PD % of Total Responders / PD Total SFC / PD Total Responders: PD donors; for % of total response / Average SFC per responder / Frequency of response / Total SFC per epitope: across all cohorts; for Total Responders / Total SFC: all three cohorts (PD, HC > 50, HC < 35); for HC < 35 Total Responders / HC < 35 Total SFC: healthy controls < 35 years old
Description: It was investigated whether T cell responses against Tau were detectable in the PD and healthy control (HC) donors. To this end, a panel of overlapping peptides spanning through the entire sequence of the Tau protein was synthesized. Since it is known that the Tau protein is post-translationally modified (mainly by phosphorylation), in several instances phosphorylated peptides were also synthesized. In all, 55 non-modified 16-mers overlapping by 8 and 14 modified 16-mers were synthesized.
PD: n=16, peptides tested 14-16 times; HC above 50 years old denominated as age-matched: n=11 (9-11 times) and HC below 35 years old (HC Young): n=13 (10-13 times).
These peptides were tested utilizing the following assay strategy. Briefly, PBMC from each donor were stimulated in vitro for 14 days as described (Hinz, D., 2015) with pools of 10 to 16 peptides each. After 14 days, the T cell cultures were assayed with IFNg/IL-5 dual ELISPOT assays […]. Positive pools were deconvoluted at day 17 to identify the specific individual epitopes recognized.

[7] = healthy controls > 50 years old

Compound | PD/HC > 50 Ratio of % Responders [6] | PD/HC > 50 Ratio of Response [6] | HC > 50 % of Total Responders [6] [%] | HC > 50 Total SFC ([6]; HC > 50, dominant epitopes) [SFC] | PD % of Total Responders [6] [%] | PD Total SFC ([6]; dominant epitopes) [SFC] | % of total response [6] [%] | Average SFC per responder [6] [SFC] | Frequency of response [6] | Total SFC per epitope [6] [SFC] | PD Total Responders [6] | PD Total SFC [6] [SFC] | Total Responders [6] | Total SFC [6] [SFC] | HC < 35 Total Responders [6] | HC < 35 Total SFC [6] [SFC] | HC > 50 Total Responders [6, 7] | HC > 50 Total SFC [6, 7] [SFC] | other results
CSCC[C@H](NC(=O)[C@@H](N)CCC(=O)O)C(=O)N1CCC[C@H]1C(=O)N[C@@H](CO)C(=O)N[C@@H](CCC(=O)O)C(=O)N[C@@H](CCC(=O)O)C(=O)NCC(=O)N[C@@H](Cc1ccc(O)cc1)C(=O)N[C@@H](CCC(N)=O)C(=O)N[C@@H](CC(=O)O)C(=O)N[C@@H](Cc1ccc(O)cc1)C(=O)N[C@@H](CCC(=O)O)C(=O)N1CCC[C@H]1C(=O)N[C@@H](CCC(=O)O)C(=O)N[C@@H](C)C(=O)O | – | – | – | – | – | – | – | – | – | – | – | – | – | – | – | – | – | – | IC50 ([1]; purified HLA, radiolabeled peptide competition, nM, read-out: binding to DPB1*02:01 (IC50)): > 10000 nM; IC50 [2]: > 10000 nM; IC50 ([3]; purified HLA, radiolabeled peptide competition, nM, read-out: binding to DPB1*04:01 (IC50)): > 10000 nM; IC50 ([4]; purified HLA, radiolabeled peptide competition, nM, read-out: binding to DPB1*04:02 (IC50)): > 10000 nM; IC50 ([5]; purified HLA, radiolabeled peptide competition, nM, read-out: binding to DPB1*05:01 (IC50)): > 10000 nM
CC(C)C[C@H](NC(=O)[C@@H](NC(=O)CNC(=O)[C@H](CCC(=O)O)NC(=O)[C@H](CCCCN)NC(=O)[C@@H](NC(=O)[C@@H](N)CCCCN)[C@@H](C)O)C(C)C)C(=O)N[C@@H](Cc1ccc(OP(=O)(O)O)cc1)C(=O)N[C@H](C(=O)NCC(=O)N[C@@H](CO)C(=O)N[C@@H](CCCCN)C(=O)N[C@H](C(=O)N[C@@H](CCCCN)C(=O)N[C@@H](CCC(=O)O)C(=O)O)[C@@H](C)O)C(C)C | – | – | – | – | – | – | – | – | – | – | – | – | – | – | – | – | – | – | IC50 [1]: 620 nM; IC50 [3]: 937 nM; IC50 [4]: 1600 nM; IC50 [5]: 777 nM
SLEDEAAGHVTQARMV (listed as Homo sapiens) [Tau 16-mer, start 113] | 2.0 | 11 | 33.3 | 640 | 66.7 | 7058 | 2.2 | 1283 | 11.3 | 7698 | – | – | – | – | – | – | – | – | –
SNVSSTGSIDMVDSPQ (listed as Homo sapiens) [Tau 16-mer, start 409] | – | – | – | – | – | – | – | – | – | – | 2 | 710 | 3 | 1767 | 0 | 0 | 1 | 1057 | –
SNVSSTGSIDMVDZPQ | – | – | – | – | – | – | – | – | – | – | 4 | 1484 | 4 | 1484 | 0 | 0 | 0 | 0 | –
SVQIVYKPVDLSKVTS (listed as Homo sapiens) | 0.9 | 1.1 | 42.1 | 5460 | 36.8 | 6203 | 4.0 | 731 | 35.8 | 13888 | – | – | – | – | – | – | – | – | –
TPPTREPKKVAVVRTP (listed as Homo sapiens) | – | – | – | – | – | – | – | – | – | – | 1 | 1707 | 1 | 1707 | 0 | 0 | 0 | 0 | –
TPPTREPKKVAVVRXP | – | – | – | – | – | – | – | – | – | – | 4 | 1813 | 7 | 2210 | 3 | 397 | 0 | 0 | –
TRIPAKTPPAPKTPPS (listed as Homo sapiens) [Tau 16-mer, start 169] | 1.0 | 8.1 | 33.3 | 180 | 33.3 | 145 | 1.1 | 1299 | 5.7 | 3897 | – | – | – | – | – | – | – | – | –
VDLSKVTSKCGSLGNI (listed as Homo sapiens) [Tau 16-mer, start 313] | 2.0 | 7.5 | 28.6 | 897 | 57.1 | 671 | 2.8 | 1409 | 13.2 | 9861 | – | – | – | – | – | – | – | – | –
VYKSPVVSGDTSPRHL (listed as Homo sapiens) [Tau 16-mer, start 393] | 1.0 | 2.6 | 42.9 | 3397 | 42.9 | 8951 | 3.8 | 1915 | 13.2 | 13408 | – | – | – | – | – | – | – | – | –
